Source: article PMC7998731, “Pharmacokinetic Characterization of Supinoxin and Its Physiologically Based Pharmacokinetic Modeling in Rats” (Pharmaceutics, 2021)
Like-named read-outs stand apart in the source and are kept apart here.

What was measured:
[1] = In vivo pharmacokinetic study, intravenous administration to rats; details: rat, plasma; for concentration at 0.083 h / concentration at 0.25 h / concentration at 0.5 h / concentration at 1 h / concentration at 3 h / concentration at 7 h / concentration at 10 h / concentration at 24 h: fasted male SD rats; for concentration at 24 h: BQL treated as 0; for AUC(0-inf) / AUC(0-t) / MRT / clearance / half-life / Vd: male
Method: Male Sprague Dawley (SD) rats, 6–7 weeks old, were purchased from Orient Bio Inc. (Seongnam-si, Korea) and were used in all in vivo studies. The animals were maintained at a temperature of 20–26 °C with a 12 h light/dark cycle and a relative humidity of 40–60%. The experimental protocols involving the animals used in this study were reviewed by the Animal Care and Use Committee of Chungnam National University (CNU-00576, Daejeon, Korea; approval date: 13 March 2015).
Supinoxin was dissolved in a vehicle (10% DMSO, 10% Tween 80, 40% PEG 400, and 40% saline). In single doses, the administration routes involved an intravenous bolus via the tail vein (n = 4–5) and an oral gavage dose (n = 4–5). The dosing volume was 2 mL per kg body weight, and the dosing range was 0.5, 1, and 5 mg/kg. Blood samples (200 µL) were collected from the jugular vein at 0.083 (intravenous only), 0.25, 0.5, 1, 3, 7, 10, and 24 h after dosing, using a heparinized syringe to ensure anticoagulation. During blood sampling, rats were placed in a restrainer (Nagai-CFS-1S; NMS, Tokyo, Japan). For the separation of plasma fractions, all blood samples were centrifuged at 17,600× g for 5 min. The samples were stored at −20 °C until analysis. When obtaining tissue concentrations to calculate the tissue-to-plasma partition ratio was necessary, samples of nine tissues (i.e., adipose, heart, muscle, kidney, brain, liver, spleen, gut, and lung) were collected at 0.33, 1, 3, 7, and 24 h after 5 mg/kg intravenous administration of supinoxin (n = 3).
The peak concentration (Cmax) and the time to reach Cmax (Tmax) were obtained directly from individual plasma concentration–time profiles. Linear trapezoidal rule was used to calculate the areas under the plasma concentration–time curve (AUC) and the first moment curve (AUMC), while the terminal half-life (T1/2) was calculated using 0.693/λ, where λ represents the slope of the log-transformed concentration–time profiles of the terminal phase. The systemic clearance (CL), mean residence time (MRT), and the volume of the distribution at the steady state (Vss) were calculated as follows: dose/AUC, AUMC/AUC, and MRT·CL, respectively. To calculate the absolute oral bioavailability (F) we divided the AUC obtained following oral administration by that obtained following intravenous administration of the respective dose.
To determine supinoxin concentrations in plasma, feces, and urine, we used a previously reported LC–MS/MS assay using DGG-200064 as an internal standard (IS). Briefly, an aliquot (50 μL) of IS solution (concentration 100 ng/mL) was added to 50 μL of plasma, feces, or urine sample, following which 400 μL of acetonitrile containing 0.1% formic acid was added. After vigorous vortexing for 10 min, the extract was centrifuged at 17,600 rpm for 10 min at 4 °C, and the supernatant was placed in an autosampler vial. An aliquot of 5 µL was then injected into the analytical column for chromatographic separation; the analytical system consisted of a 1200 series HPLC system (Applied Biosystems, Foster City, CA, USA) equipped with a turbo-electrospray interface in positive ionization mode.

[2] = Tissue distribution (tissue-to-plasma partition) in rats; format: in vivo; details: male, rat; for Vd: oral; for AUC(0-t): mean, read-out: AUC0–24h
[3] = Plasma protein binding by Rapid Equilibrium Dialysis; format: in vitro ADME; details: rat plasma
Method: To determine the unbound fraction of supinoxin in the plasma, a protein binding study was carried out using the Rapid Equilibrium Dialysis (RED) method. Following the manufacturer’s protocol (Thermo Fisher Scientific, San Jose, CA, USA), supinoxin was added to a plasma aliquot to produce a final concentration of 1 µg/mL. A plasma aliquot containing supinoxin (200 µL) and buffer (350 µL) was added to the sample chamber and the buffer chamber, respectively. When necessary, supinoxin was added to the microsomal incubation mixture (0.5 mg of protein per mL in potassium phosphate buffer) to produce final concentrations of 1 µM. The plate was covered and agitated on an orbital shaker at approximately 250 rpm at 37 °C. Aliquots (25 µL) of the plasma and buffer were collected at 4, 8, 18, and 24 h, and the samples were subjected to LC–MS/MS analysis. The fraction of supinoxin bound to plasma protein was estimated as follows:Percent bound (%) = [1 − (concentration in buffer/concentration in plasma)] × 100%(5)

[4] = Sprague-Dawley, intravenous 0.5 mg/kg
[5] = Sprague-Dawley, intravenous 5 mg/kg
[6] = Sprague Dawley, rats, intravenous, 0.5 mg/kg
[7] = Sprague Dawley, rats, intravenous, 5 mg/kg

COc1cc(OC)cc(N2CCN(C(=O)Nc3nc4cc(F)ccc4nc3OC)CC2)c1 [supinoxin, 1-(3,5-Dimethoxyphenyl)-4-[(6-Fluoro-2-Methoxyquinoxalin-3-yl) Aminocarbonyl] Piperazine]
concentration at 0.083 h [1, 4]: 313 ng/mL
concentration at 0.25 h [1, 4]: 255 ng/mL
concentration at 0.5 h [1, 4]: 206 ng/mL
concentration at 1 h [1, 4]: 140 ng/mL
concentration at 3 h [1, 4]: 79.3 ng/mL
concentration at 7 h [1, 4]: 20.8 ng/mL
concentration at 10 h [1, 4]: 8.2 ng/mL
concentration at 24 h [1, 4]: 0.3 ng/mL
concentration at 0.083 h [1, 5]: 2380 ng/mL
concentration at 0.25 h [1, 5]: 1640 ng/mL
concentration at 0.5 h [1, 5]: 1310 ng/mL
concentration at 1 h [1, 5]: 907 ng/mL
concentration at 3 h [1, 5]: 600 ng/mL
concentration at 7 h [1, 5]: 234 ng/mL
concentration at 10 h [1, 5]: 130 ng/mL
concentration at 24 h [1, 5]: 5.8 ng/mL
AUC(0-inf) [1, 6]: 727 ± 177 ng·h/mL
AUC(0-t) [1, 6]: 715 ± 180 ng·h/mL
MRT [1, 6]: 2.92 ± 0.65 h
clearance ([1]; Sprague Dawley, rats, intravenous, 0.5 mg/kg, read-out: CL (converted)): 11.9 mL/min/kg
half-life ([1]; Sprague Dawley, rats, intravenous, 0.5 mg/kg, read-out: T1/2 (converted)): 2.54 ± 0.83 h
AUC(0-inf) [1, 7]: 6130 ± 1750 ng·h/mL
AUC(0-t) [1, 7]: 6090 ± 1760 ng·h/mL
MRT [1, 7]: 4.07 ± 1.37 h
clearance ([1]; Sprague Dawley, rats, intravenous, 5 mg/kg, read-out: CL (converted)): 14.4 mL/min/kg
half-life ([1]; Sprague Dawley, rats, intravenous, 5 mg/kg, read-out: T1/2 (converted)): 2.8 ± 0.71 h
clearance ([1]; Sprague-Dawley, PBPK input parameter, Determined, from intravenous administration study, read-out: In vivo clearance (CLiv)): 3.16 mL/min
Vd ([1]; Sprague-Dawley, rats, intravenous, 0.5 mg/kg, read-out: Vss): 2.11 ± 0.803 L/kg
Vd ([1]; Sprague-Dawley, rats, intravenous, 5 mg/kg, read-out: Vss): 3.5 ± 1.45 L/kg
Vd ([1]; Sprague-Dawley, rats, intravenous, range over doses 0.5–5 mg/kg, read-out: steady state volume of distribution): 2.04 to 3.5 L/kg
clearance ([1]; Sprague-Dawley, rats, intravenous, range over doses 0.5–5 mg/kg, read-out: systemic clearance): 11.5 to 14.4 mL/min/kg
half-life ([1]; Sprague-Dawley, rats, intravenous, range over doses 0.5–5 mg/kg, read-out: terminal half-life): 2.54 to 2.8 h
Vd ([2]; Sprague Dawley, plasma, 5 mg/kg, estimated Kp and tissue volumes from literature, read-out: steady state volume of distribution calculated from Kp and tissue volumes): 1.92 L
AUC(0-t) ([2]; Sprague Dawley, Adipose tissue, rats, oral administration (5 mg/kg)): 111000 ng·h/mL
AUC(0-t) ([2]; Sprague Dawley, Spleen, rats, oral administration (5 mg/kg)): 3310 ng·h/mL
AUC(0-t) ([2]; Sprague-Dawley, kidney, Kidneys, rats, oral administration (5 mg/kg)): 11100 ng·h/mL
Kp ([2]; Sprague-Dawley, kidney, Kidneys, rats, oral administration (5 mg/kg), read-out: Kp (tissue to plasma AUC ratio)): 2.18
AUC(0-t) ([2]; Sprague-Dawley, lung, Lungs, rats, oral administration (5 mg/kg)): 5520 ng·h/mL
Kp ([2]; Sprague-Dawley, lung, Lungs, rats, oral administration (5 mg/kg), read-out: Kp (tissue to plasma AUC ratio)): 1.08
AUC(0-t) ([2]; Sprague-Dawley, muscle, Muscles, rats, oral administration (5 mg/kg)): 6130 ng·h/mL
Kp ([2]; Sprague-Dawley, muscle, Muscles, rats, oral administration (5 mg/kg), read-out: Kp (tissue to plasma AUC ratio)): 1.2
Vd ([2]; Sprague-Dawley, 5 mg/kg, sum of Kp × Volume over plasma and tissues, read-out: Vd): 1.92 L/kg
Kp ([2]; Sprague-Dawley, several tissues (range over tissues), intravenous, 5 mg/kg, range over tissues, PBPK input parameter, Determined, read-out: Tissue: Plasma partition coefficients): 0.649 to 21.7
AUC(0-t) ([2]; Sprague-Dawley, Adipose tissue, rats, oral administration (5 mg/kg)): 111000 ng·h/mL
Kp ([2]; Sprague-Dawley, Adipose tissue, rats, oral administration (5 mg/kg), read-out: Kp (tissue to plasma AUC ratio)): 21.7
AUC(0-t) ([2]; Sprague-Dawley, Brain, rats, oral administration (5 mg/kg)): 4350 ng·h/mL
Kp ([2]; Sprague-Dawley, Brain, rats, oral administration (5 mg/kg), read-out: Kp (tissue to plasma AUC ratio)): 0.85
AUC(0-t) ([2]; Sprague-Dawley, Gut, rats, oral administration (5 mg/kg)): 25300 ng·h/mL
Kp ([2]; Sprague-Dawley, Gut, rats, oral administration (5 mg/kg), read-out: Kp (tissue to plasma AUC ratio)): 4.96
AUC(0-t) ([2]; Sprague-Dawley, Heart, rats, oral administration (5 mg/kg)): 3550 ng·h/mL
Kp ([2]; Sprague-Dawley, Heart, rats, oral administration (5 mg/kg), read-out: Kp (tissue to plasma AUC ratio)): 0.7
AUC(0-t) ([2]; Sprague-Dawley, Liver, rats, oral administration (5 mg/kg)): 24300 ng·h/mL
Kp ([2]; Sprague-Dawley, Liver, rats, oral administration (5 mg/kg), read-out: Kp (tissue to plasma AUC ratio)): 4.76
AUC(0-t) ([2]; Sprague-Dawley, Plasma, rats, oral administration (5 mg/kg)): 5110 ng·h/mL
Kp ([2]; Sprague-Dawley, Plasma, rats, oral administration (5 mg/kg), read-out: Kp (tissue to plasma AUC ratio)): 1
AUC(0-t) ([2]; Sprague-Dawley, Spleen, rats, oral administration (5 mg/kg)): 3310 ng·h/mL
Kp ([2]; Sprague-Dawley, Spleen, rats, oral administration (5 mg/kg), read-out: Kp (tissue to plasma AUC ratio)): 0.65
AUC(0-t) ([2]; Sprague-Dawley, Testes, rats, oral administration (5 mg/kg)): 5370 ng·h/mL
Kp ([2]; Sprague-Dawley, Testes, rats, oral administration (5 mg/kg), read-out: Kp (tissue to plasma AUC ratio)): 1.05
fraction unbound at 4 h, 1 µg/mL ([3]; 1 µg/mL, 4 h incubation): 0.023 ± 0.0025
fraction unbound at 8 h, 1 µg/mL ([3]; 1 µg/mL, 8 h incubation): 0.0283 ± 0.0019
fraction unbound at 24 h, 1 µg/mL ([3]; 1 µg/mL, 24 h incubation): 0.0354 ± 0.0055
fraction unbound at 1 µg/mL ([3]; as fraction, Determined, read-out: Fraction unbound in plasma (fu)): 0.0363
